Results published in patent US20220022395A1, “JASMONIC ACID ENDOGENY PROMOTING AGENT, AND METHOD FOR PROMOTING JASMONIC ACID ENDOGENY” (Tokyo University of Science Foundation, priority 2018, published 2022).

Columns and labels:
[1] = test system: Arabidopsis thaliana (Col-0); assay: Measurement of amount of endogenous jasmonic acid production (LC-MS/MS); assay type: in vivo; conditions: 50 μM, 24 h in the light, vs DMSO negative control; FIG. 1 (*p<0.05; **p<0.01)
Description: Arabidopsis thaliana (Col-0) seeds were sown on a transparent 96-well plate, and soaked in a 1/2 MS medium (150 μL). The seeds were left for 2-3 days in a cool and dark place, and then left to grow under long-day treatment conditions for 9-10 days. Thereafter, the medium was replaced with a 1/2 MS medium (100 μL) containing each (50 μM) of compounds E1, E2, and E3, and comparative compounds C1 and C2, vacuum treatment was applied for 10 min, and the seeds were left in the light for 24 h. About 20 to 60 mg of the plantlets (about 3 individuals) and 2 beads for crushing were placed in a tube, and immediately frozen with liquid nitrogen and stored at −80° C. In addition, for a negative control, DMSO was added instead of each of compounds E1, E2, and E3, and comparative compounds C1 and C2.
The frozen sample was crushed using a bead-type homogenizer (Bead Smash 12; WakenBtech Co., Ltd.) under conditions of 3,000 rpm for 60 sec, and then 1 mL of an aqueous solution of 70% methanol plus 1% acetic acid and 10 ng of d2-JA (internal standard) were added. The mixture was mixed thoroughly by vortexing. This solution was centrifuged at 10,000 rpm for 5 min and the supernatant was collected. The same process was repeated two more times without the addition of the internal standard, and a total of 3 mL of an extract was collected.
The solutions were then applied to a Sep-Pak (registered trademark) Vac 3cc (500 mg) C18 Cartridge (Waters) in the following order of 1. to 6.
1. acetonitrile (one column volume, about 3 mL) 2. 100% methanol (one column volume) 3. distilled water (one column volume) 4. aqueous solution of 70% methanol+1% acetic acid (two column volumes) 5. sample supernatant (total amount) 6. aqueous solution of 70% methanol+1% acetic acid (one column volume) […]
Then, the amount of endogenous jasmonic acid (JA) production was determined by LC-MS/MS. […]

PDF1.2 gene [2] = assay: Measurement of expression level of PDF1.2 gene (1), real-time PCR; assay type: in vivo, Arabidopsis thaliana; conditions: 24 h, relative expression (ΔΔCt, EF1-α reference)
Description: Arabidopsis thaliana (Col-0) seeds were sown on a transparent 96-well plate, and soaked in a 1/2 MS medium (150 μL). The seeds were left for 2-3 days in a cool and dark place, and then left to grow under long-day treatment conditions for 9-10 days. Thereafter, the medium was replaced with a 1/2 MS medium (100 μL) containing compound E1 (25 μM) or compound E2 (50 μM), vacuum treatment was applied for 10 min, and the seeds were left in the light for 24 h. About 20 to 60 mg of the plantlets (about 3 individuals) and 2 beads for crushing were placed in a tube, and immediately frozen with liquid nitrogen and stored at −80° C. In addition, for a negative control, DMSO was added instead of each of compounds E1 and E2. […] The concentration of the total RNA obtained was measured, and the total RNA was mixed with RNAse-free H2O to 1/12 μg/μL (6 μL H2O for 0.5 μg of the total RNA), and the mixture was placed in a PCR tube, incubated at 65° C. for 5 min, and then quenched on ice. […] Then, CFX Connect Real-Time PCR Detection System (Bio-Rad) was used to quantitatively determine the expression level of PDF1.2 gene. […] For quantification, the ΔΔCt method was used, and this value was expressed as the relative expression level. […]

PDF1.2 gene [3] = assay: Measurement of expression level of PDF1.2 gene (2), real-time PCR; assay type: in vivo, Arabidopsis thaliana; conditions: 50 μM, 48 h; FIG. 3
Description: (§1) Arabidopsis thaliana (Col-0) seeds were sown on a transparent 96-well plate, and soaked in a 1/2 MS medium (150 μL). The seeds were left for 2-3 days in a cool and dark place, and then left to grow under long-day treatment conditions for 10 days. Thereafter, the medium was replaced with a 1/2 MS medium (100 μL) containing compound E1 (50 μM), compound E4 (50 μM), or compound E5 (50 μM), and comparative compounds C1 and C2, vacuum treatment was applied for 10 min, and the seeds were left in the light for 48 h. Eight individual plantlets and 2 beads for crushing were placed in a tube, and immediately frozen with liquid nitrogen and stored at −80° C. In addition, for a negative control, DMSO was added instead of each of compounds E1, E4, and E5. Then, similarly to Test Example 2, RNA was extracted from the frozen sample, and the expression level of the PDF1.2 gene was quantitatively determined by reverse transcription real-time PCR.

PDF1.2 gene [4] = assay: Measurement of expression level of PDF1.2 gene (3), real-time PCR; assay type: in vivo, Arabidopsis thaliana; conditions: 50 μM, 48 h; FIG. 4
Description: as §1, with “3-7” for “2-3”, “μM),” for “μM), compound E4 (50 μM),”, “E6” for “E5”, “E1” for “E1, E4,”, “E6.” for “E5.”

MRC-5 cells = assay: Study on cytotoxicity, WST-8 method; assay type: cell-based, human; conditions: 50 μM, cultured 2 days, FIG. 5
Description: Normal fibroblasts MRC-5 from human fetal lung were seeded in a 96-well plate at a cell density of 5,000 cells/well, and cultured for 1 day under conditions of 37° C. and 5% CO2. After the culturing, compound E1 was added to the medium at varying concentrations, and the cells were cultured for another 2 days. Then, the number of viable cells was determined using the WST-8 method, and the viability of the MRC-5 cells was calculated. In addition, for a control, SN-38, an active metabolite of the anticancer drug irinotecan, was added instead of compound E1.

Compound | amount of endogenous jasmonic acid production [1] | expression level of PDF1.2 gene (PDF1.2 gene [3]) | expression level of PDF1.2 gene (PDF1.2 gene [4]) | other results
COc1ccc(Oc2cccc(F)c2C#N)cc1 [compound E1] | significantly increased | markedly enhanced | markedly enhanced | expression level of PDF1.2 gene (PDF1.2 gene [2]; 25 μM, FIG. 2A): markedly enhanced; viability of the MRC-5 cells (MRC-5 cells): exceeds 60%
N#Cc1c(Cl)cccc1Oc1ccc(-c2nnco2)cc1 [compound E2] | significantly increased |  |  | expression level of PDF1.2 gene (PDF1.2 gene [2]; 50 μM, FIG. 2B): markedly enhanced
N#Cc1c(F)cccc1Oc1ccccc1 [compound E3] | significantly increased |  |  | 
COc1ccc(Oc2cccc(Cl)c2C#N)cc1 [compound E4] |  | markedly enhanced |  | 
COc1ccc(Oc2cccc(Br)c2C#N)cc1 [compound E5] |  | markedly enhanced |  | 
CC(C)Oc1ccc(Oc2cccc(F)c2C#N)cc1 [compound E6] |  |  | markedly enhanced | 
